Measurements from patent publication US20130323361A1, “NUTRITIONAL COMPOSITIONS INCLUDING EXOGENOUS VITAMIN K2” (NESTEC S.A., priority 2009, published 2013).

Legend:
Assay type in all cases: in vivo, Male Sprague-Dawley rats
4E-BP 1 (Thr37) = test: mTOR signaling: 4E-BP1 phosphorylation in gastrocnemius muscle of LPS-challenged rats; conditions: 25 or 50 microgram oral daily over 7 days, LPS 0.5 mg/kg IP, compared to LPS treatment
Experimental: (§1) Male Sprague-Dawley rats (175 g) are kept on a 12-h light:dark cycle with food (Harlan-Teklad Rodent Chow, Madison, Wis.) and water provided freely. Animals are administered daily doses of vitamin K2 (MK-7) or saline (control) via oral gavage over 7 days. Stock solutions of vitamin K2 are prepared containing 3.5 g/L HCO-60 and 1 g/L of […] in buffer A (0.15 M NaCl, 0.05 M Tris-HCl, pH 7.5). The K2 is dissolved by sonication during five pulses of 5 set with an amplitude of 6 pm. Solutions thus obtained are clear, homogeneous, and stable. […]
(§2) Analysis of mTOR Signaling to elFs—Gastrocnemius muscles are weighed and homogenized in 7 volumes of buffer containing 20 mM HEPES (pH 7.4), 100 mM potassium chloride, 0.2 mM EDTA, 2 mM EGTA, 50 mM sodium fluoride, 50 mM glycerophosphate, 0.1 mM phenylmethylsulfonyl fluoride, 1 mM benzamidine, 1 mM dithiothreitol (DTT), and 0.5 mM sodium vanadate. […] Samples are analyzed for the phosphorylation status of 4E-BP 1 (Thr37) and ribosomal protein S6 (Ser 235/236), the anti-phosphospecific antibodies were obtained from Cell Signaling Technology, Beverly, Mass. Additionally, samples are analyzed for phosphorylated IKKα/β (Ser176/180; Cell Signaling Technology) and phosphorylated p65 (Ser536; Cell Signaling Technology).

IKKα/β (Ser176/180) = test: Immunoblot of phosphorylated IKKα/β in gastrocnemius muscle of LPS-challenged rats; conditions: 25 or 50 microgram oral daily over 7 days, LPS 0.5 mg/kg IP, compared to LPS treatment
Experimental: as §1, §2

[1] = tested on: total mixed muscle protein; test: Measurement of protein synthesis (fractional rate Ks, radioactive phenylalanine incorporation) in LPS-challenged rats; conditions: 25 or 50 microgram oral daily over 7 days, LPS 0.5 mg/kg IP, under conditions of inflammatory sepsis, compared to LPS treatment
Experimental: as §1, with “stable. Shortly before vitamin K administration the stock solutions are diluted five times with buffer A, leading to a final HCO-60 concentration of 0.7 g/L. Further dilutions (as required) are made with 0.7 g/L HCO-60 in buffer A. Each dilution step is followed by sonication as described above. In all cases vitamin K2 is administered to the rats in 0.5 mL samples, with either 25 or 50 microgram oral doses.” for “stable.”
Measurement of Protein Synthesis—The fractional rate of synthesis (Ks) is estimated from the rate of incorporation of radioactive phenylalanine into total mixed muscle protein using the specific radioactivity of serum phenylalanine as representative of the precursor pool. […]

plasma TNF-a = test: Plasma TNF-a in LPS-challenged rats; conditions: 25 or 50 microgram oral daily over 7 days, LPS 0.5 mg/kg IP 2 hours after last dose, sacrifice four hours later, compared to LPS treated animals
Experimental: Male Sprague-Dawley rats (175 g) are kept on a 12-h light:dark cycle with food (Harlan-Teklad Rodent Chow, Madison, Wis.) and water provided freely. Animals are administered daily doses of vitamin K2 (MK-7) or saline (control) via oral gavage over 7 days. Stock solutions of vitamin K2 are prepared containing 3.5 g/L HCO-60 and 1 g/L of […] in buffer A (0.15 M NaCl, 0.05 M Tris-HCl, pH 7.5). The K2 is dissolved by sonication during five pulses of 5 set with an amplitude of 6 pm. Solutions thus obtained are clear, homogeneous, and stable. Shortly before vitamin K administration the stock solutions are diluted five times with buffer A, leading to a final HCO-60 concentration of 0.7 g/L. Further dilutions (as required) are made with 0.7 g/L HCO-60 in buffer A. Each dilution step is followed by sonication as described above. In all cases vitamin K2 is administered to the rats in 0.5 mL samples, with either 25 or 50 microgram oral doses.
On the final day (Day 7), rodents are administered vitamin K2 and 2 hours later were given an IP dose of LPS (Escherichia coli serotype 0111:B4, L2630, Sigma) intraperitoneally (0.5 mg/kg of body weight). Four hours later animals are sacrificed.

[2] = tested on: ribosomal protein S6 (Ser 235/236); test: mTOR signaling: ribosomal protein S6 phosphorylation in gastrocnemius muscle of LPS-challenged rats; conditions: 25 or 50 microgram oral daily over 7 days, LPS 0.5 mg/kg IP, compared to LPS treatment
Experimental: as §1, §2

NFαB p65 = test: Immunoblot of phosphorylated p65 in gastrocnemius muscle of LPS-challenged rats; conditions: 25 or 50 microgram oral daily over 7 days, LPS 0.5 mg/kg IP, compared to LPS treatment
Experimental: as §1, §2

SMILES: CC(C)=CCC/C(C)=C/CC/C(C)=C/CC/C(C)=C/CC/C(C)=C/CC/C(C)=C/CC/C(C)=C/CC1=C(C)C(=O)c2ccccc2C1=O [K2, vitamin K2 (MK-7)]
- decrease in 4E-BPI(Thr-37) phosphorylation (4E-BP 1 (Thr37)): abrogates the decrease
- drop in phosphorlyation for IKKα/β (IKKα/β (Ser176/180)): significant blunting of the drop in phosphorlyation
- fractional rate of mixed muscle protein synthesis [1]: greater preservation
- rise of plasma TNF-a (plasma TNF-a): significant decrease in the rise
- decrease in ribosomal protein S6 phosphorylation [2]: abrogates the decrease
- NFαB p65 induction (NFαB p65): significant blunting
